This is an account of results in patent publication US11819492B2, “Natural product derivatives for inhibiting cellular necroptosis, ferroptosis and oxytosis” (Institut National de la Sante et de la Recherche Medicale …, priority 2016, dated 2023).

For assay [1], the system named is Jurkat FADD-deficient I 2.1 cell line. In words: TNF-α-induced necroptosis in Jurkat FADD-deficient cells, MTS viability assay. The class given is cell-based, human. Particulars: TNF-α 10 ng/ml, 24 hours. The source says:
TNF-α can induce necroptosis in Jurkat cells (human T lymphocytes) when FADD is deleted. This model was used to screen various libraries of chemical compounds for characterization of new inhibitors of cellular necroptosis. Details on this cell-based assay can be found in Miao and Degterev (Methods Mol. Biol. 2009, 559, 79-93). The Jurkat FADD-deficient I 2.1 cell line used was purchased from ATCC and was maintained in RPMI 1640 medium (Gibco) containing Glutamax and 15% fetal calf serum (Life Technology). Necroptosis was induced by addition of 10 ng/ml of human recombinant TNF-α (Life Technology). Necrostatin-1 (Nec-1, Enzo Life Sciences) was used as model necroptosis inhibitor. Cells were maintained in 75 cm^2 flask and passed every 2 or 3 days. Chemical collections analysed were formatted in 96-well plates with 80 molecules per plate at 10 mM in 100% DMSO. […]
Cells were incubated at 37° C., 5% CO2 for 24 hours before performing MTS viability assay. Cell viability was monitored using CellTiter 96® AQueous Non-Radioactive Cell Proliferation Assay (Promega, Fitchburg, WI, USA), based on the water-soluble tetrazolium compound MTS (3-[4,5-dimethylthiazol-2-yl]-5-[3-carboxymethoxy-phenyl]-2-[4-sulfophenyl]-2H-tetrazolium, inner salt) according to the manufacturers instructions.
(In general: Tetrazolium assays rely on reduction of a dye to a coloured formazan, in cell work by metabolically active cells.)

The target in assay [2] is T1, Human RIPK1 full length GST-tagged (Homo sapiens, UniProt Q13546).
T1 construct: Human RIPK1 full length GST-tagged; made in house; host or cells: Sf9 insect cells (baculovirus, Bac-to-Bac)
T1 sequence (Q13546 1-671): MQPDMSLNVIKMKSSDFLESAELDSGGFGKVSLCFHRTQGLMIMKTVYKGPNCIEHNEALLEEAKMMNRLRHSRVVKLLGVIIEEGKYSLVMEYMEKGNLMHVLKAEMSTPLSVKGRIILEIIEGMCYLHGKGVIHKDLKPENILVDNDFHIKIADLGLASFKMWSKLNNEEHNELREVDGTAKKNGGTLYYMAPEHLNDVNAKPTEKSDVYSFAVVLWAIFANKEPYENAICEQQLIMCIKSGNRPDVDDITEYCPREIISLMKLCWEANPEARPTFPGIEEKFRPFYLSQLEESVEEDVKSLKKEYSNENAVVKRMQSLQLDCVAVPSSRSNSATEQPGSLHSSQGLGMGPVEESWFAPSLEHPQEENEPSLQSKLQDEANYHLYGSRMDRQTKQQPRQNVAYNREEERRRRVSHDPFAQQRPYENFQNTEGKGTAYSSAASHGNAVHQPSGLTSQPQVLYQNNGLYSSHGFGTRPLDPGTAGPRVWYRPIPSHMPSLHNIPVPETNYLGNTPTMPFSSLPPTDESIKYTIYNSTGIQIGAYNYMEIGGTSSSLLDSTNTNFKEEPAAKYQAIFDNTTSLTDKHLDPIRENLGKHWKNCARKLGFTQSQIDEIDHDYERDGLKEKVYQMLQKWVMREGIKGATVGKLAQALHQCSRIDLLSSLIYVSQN
Nature of the assay: RIPK1 autophosphorylation assay. The class given is biochemical. Here is the method: RIPK1 Autophosphorylation Assay: • Human RIPK1 full length GST-tagged was baculovirally expressed in Sf9 cells according to manufacturer's instructions (Bac-to-Bac expression system, Invitrogen) and purified using gluthation-sepharose beads (GE Healthcare). The elution was made in 50 mM Tris-HCl, pH 8.0 buffer supplemented with 30 mM reduced gluthathione (Sigma). The protocol used to detect the enzymatic activity is adapted from Miao and Degterev (Methods Mol. Biol. 2009, 559, 79-93). Kinase reaction was initiated mixing 5 μl of eluted RIPK1, 5 μl of 3X kinase reaction buffer (5 mM MOPS pH 7.2, 2.5 mM β-glycerophosphate, 4 mM MgCl2, 2.5 mM MnCl2, 1 mM EGTA, 0.4 mM EDTA, 50 μg/ml BSA, 0.05 mM DTT), 2 μl H2O and 3 μl of the tested molecule. The mixture was kept on ice for 10 minutes. […] ATP. The ATP solution and the tested inhibitor were added to the kinase and incubated for 30 minutes at 30° C. To stop the enzymatic reaction, 5 μl of loading buffer were added and solution was heated for 3 minutes at 95° C. 25 μl of each reaction were loaded per well in pre-cast NuPage 12% Bis-Tris gel (Life Technology). Necrostatin-1, a well-described inhibitor of RIPK1, was used as an internal control. Coomassie staining was performed in order to estimate the total amount of protein loaded on polyacrylamide gel. […]

Assay [3] deals with Murine hippocampal neuronal cell line HT22. In words: L-glutamate-induced oxytosis in HT22 cells, MTS viability assay. Particulars: 10 mM L-glutamate, 24 hours, FIG. 14. It counts as cell-based. Here is the method:
Murine hippocampal neuronal cell line HT22 was treated with 10 mM of (L)-glutamate (oxytosis initiator) or 1 μM erastin (ferroptosis initiator).
Cells were then incubated at 37° C., 5% CO2 for 24 hours before performing MTS viability assay. Cell viability was monitored using CellTiter 96® AQueous Non-Radioactive Cell Proliferation Assay (Promega, Fitchburg, WI, USA), based on the water-soluble tetrazolium compound MTS (3-[4,5-dimethylthiazol-2-yl]-5-[3-carboxymethoxy-phenyl]-2-[4-sulfophenyl]-2H-tetrazolium, inner salt) according to the manufacturers instructions.

Consider `COc1cc(O)c2c(c1)OC(O)(c1ccc(OCc3ccccc3)cc1)CC2=O` (centres unmarked) [compound 1], for which the “protection of cell viability from death induced by TNF-α” value in assay [1] (0.01-50.00 μM, FIG. 1) is reported as “protects cells from death induced by TNF-α”. Moreover, the “necroptosis inhibition in the library screening” value in assay [1] (screening at 10 μM) is given as “very efficient necroptosis inhibitor”. Moreover, in assay [2] ([γ-32P] ATP, 30 minutes at 30° C., FIG. 6), the “inhibition of RIPK1 autophosphorylation” value was “inhibits the RIPK1 autophosphorylation in a dose-dependent way”. For the same molecule, in assay [2] (high ATP concentrations (e.g. 1 mM), FIG. 7), the “effect of high ATP concentrations on inhibition of RIPK1 auto-phosphorylation” value is given as “not affected”. Further, the “concentration that protects cells from death induced by L-glutamate” value in assay [3] was greater than 25 µM.
